ChEMBL document CHEMBL1144313, “Synthesis of ring-substituted 4-aminoquinolines and evaluation of their antimalarial activities” (Bioorg Med Chem Lett, 2005)
pEC50: −log10 of the molar value.

Columns and labels:
Type in all cases: functional, organism-based
[1] = test system: Plasmodium falciparum; assay: Effective concentration for Plasmodium falciparum 3D7
[2] = test system: Plasmodium falciparum; assay: Effective concentration against Plasmodium falciparum W2
[3] = test system: Plasmodium falciparum; assay: Effective concentration for Plasmodium falciparum W2

CCN(CC)CCCC(C)Nc1c2ccc(Cl)cc2nc2ccc(OC)cc12 (stereo in doubt; form 1) [QUINACRINE]
pEC50 ([1]; Plasmodium falciparum): 8.30
pEC50 [2]: 8.10

CCN(CC)CCCC(C)Nc1ccnc2cc(Cl)c(C)cc12 (stereo unspecified)
pEC50 [3]: 6.57
pEC50 ([1]; Plasmodium falciparum): 7.49

CCN(CC)CCCC(C)Nc1c2ccc(Cl)cc2nc2ccc(OC)cc12 (stereo in doubt; form 2) [QUINACRINE]
pEC50 [1]: 8.10
pEC50 [2]: 7.49

CCN(CC)CCCNc1ccnc2cc(Cl)ccc12
pEC50 [3]: 7.64
pEC50 ([1]; Plasmodium falciparum): 8.70

CCN(CC)CCCNc1ccnc2cc(C(F)(F)F)ccc12
pEC50 [3]: 7.21
pEC50 ([1]; Plasmodium falciparum): 7.48

CCN(CC)CCCNc1ccnc2cc(Cl)c(C)cc12
pEC50 [3]: 7.30
pEC50 ([1]; Plasmodium falciparum): 8.05

CCN(CC)CCCNc1ccnc2ccc(C(F)(F)F)cc12
pEC50 [3]: 6.90
pEC50 ([1]; Plasmodium falciparum): 7.05

CCN(CC)CCCNc1ccnc2ccc(OC(F)(F)F)cc12
pEC50 [3]: 6.99
pEC50 ([1]; Plasmodium falciparum): 7.09

CCN(CC)CCCC(C)Nc1ccnc2ccc(OC(F)(F)F)cc12 (stereo unspecified)
pEC50 ([1]; Plasmodium falciparum): 7.21

CCN(CC)CCCNc1ccnc2cc(Oc3ccccc3)ccc12
pEC50 [3]: 7.15
pEC50 ([1]; Plasmodium falciparum): 7.47

CCN(CC)CCCC(C)Nc1ccnc2ccc(C(F)(F)F)cc12 (stereo unspecified)
pEC50 [3]: 6.54
pEC50 ([1]; Plasmodium falciparum): 7.29
